Target: interaction between p53 and MDM2 proteins (Homo sapiens, UniProt Q00987)
Assay: HTRF assay of inhibition of the p53-MDM2 interaction (GST-MDM2 / biotinylated p53 peptide)
Format: binding
Settings: recombinant GST-tagged MDM2 and biotinylated p53 peptide, bsa:0.02%

interaction between p53 and MDM2 proteins, sequence (Q00987 whole entry): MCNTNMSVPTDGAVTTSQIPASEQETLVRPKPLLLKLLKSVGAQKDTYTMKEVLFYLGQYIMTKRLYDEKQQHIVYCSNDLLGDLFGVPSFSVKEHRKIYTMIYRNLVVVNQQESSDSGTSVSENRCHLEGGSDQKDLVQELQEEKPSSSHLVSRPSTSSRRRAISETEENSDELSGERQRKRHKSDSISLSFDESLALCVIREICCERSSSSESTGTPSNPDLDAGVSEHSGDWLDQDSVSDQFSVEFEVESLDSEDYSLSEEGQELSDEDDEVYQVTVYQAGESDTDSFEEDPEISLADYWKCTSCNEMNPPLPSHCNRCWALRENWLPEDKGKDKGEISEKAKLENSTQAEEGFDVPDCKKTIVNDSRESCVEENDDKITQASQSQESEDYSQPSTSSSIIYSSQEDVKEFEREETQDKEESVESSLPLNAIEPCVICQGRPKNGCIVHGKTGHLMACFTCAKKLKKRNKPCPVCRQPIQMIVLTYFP

IC50	SMILES
0.012 µM	CC(C)(C)C[C@@H]1N[C@@H](C(=O)Nc2ccc(C(N)=O)cc2)[C@H](c2cccc(Cl)c2F)[C@]12C(=O)Nc1cc(Br)ccc12 (racemic) [Example 94, rac-(2′S,3′R,4′S,5′R)-6-bromo-4′-(3-chloro-2-fluoro-phenyl)-2′-(2,2-dimethyl-propyl)-2-oxo-1,2-dihydro-spiro[indole-3,3′-pyrrolidine]-5′-carboxylic acid (4-carbamoyl-phenyl)-amide]
0.019 µM	COc1cnccc1NC(=O)[C@@H]1N[C@@H](CC(C)(C)C)[C@@]2(C(=O)Nc3cc(Cl)ccc32)[C@H]1c1cccc(Cl)c1F (racemic) [Example 162, rac-(2′S,3′R,4′S,5′R)-6-chloro-4′-(3-chloro-2-fluoro-phenyl)-2′-(2,2-dimethyl-propyl)-2-oxo-1,2-dihydro-spiro[indole-3,3′-pyrrolidine]-5′-carboxylic acid (3-methoxy-pyridin-4-yl)-amide]
0.005 µM	COc1cc(C(=O)O)ccc1NC(=O)[C@@H]1N[C@@H](CC(C)(C)C)[C@@]2(C(=O)Nc3cc(Cl)ccc32)[C@H]1c1cccc(Cl)c1F [Example 111, chiral 4-{[(2′S,3′R,4′S,5′R)-6-chloro-4′-(3-chloro-2-fluoro-phenyl)-2′-(2,2-dimethyl-propyl)-2-oxo-1,2-dihydro-spiro[indole-3,3′-pyrrolidine]-5′-carbonyl]-amino}-3-methoxy-benzoic acid]
0.005 µM	COc1cc(NC(=O)[C@@H]2N[C@@H](CC(C)(C)C)[C@@]3(C(=O)Nc4cc(Cl)ccc43)[C@H]2c2cccc(Cl)c2F)ccc1C(N)=O [Example 23, chiral (2′S,3′R,4′S,5′R)-6-chloro-4′-(3-chloro-2-fluoro-phenyl)-2′-(2,2-dimethyl-propyl)-2-oxo-1,2-dihydro-spiro[indole-3,3′-pyrrolidine]-5′-carboxylic acid (4-carbamoyl-3-methoxy-phenyl)-amide]
0.006 µM	CC(C)(C)C[C@@H]1N[C@@H](C(=O)Nc2ccc(C(N)=O)cc2)[C@H](c2cccc(Cl)c2)[C@]12C(=O)Nc1cc(Cl)ccc12 [Example 65B, chiral (2′S,3′R,4′R,5′R)-6-chloro-4′-(3-chloro-phenyl)-2′-(2,2-dimethyl-propyl)-2-oxo-1,2-dihydro-spiro[indole-3,3′-pyrrolidine]-5′-carboxylic acid (4-carbamoyl-phenyl)-amide]
0.011 µM	COC(=O)c1ccc(NC(=O)[C@@H]2N[C@@H](CC(C)(C)C)[C@@]3(C(=O)Nc4cc(Cl)ccc43)[C@H]2c2cccc(Cl)c2F)c(OC)c1 (racemic) [Example 109, rac-4-{[(2′S,3′R,4′S,5′R)-6-chloro-4′-(3-chloro-2-fluoro-phenyl)-2′-(2,2-dimethyl-propyl)-2-oxo-1,2-dihydro-spiro[indole-3,3′-pyrrolidine]-5′-carbonyl]amino}-3-methoxy-benzoic acid methyl ester]
0.014 µM	COc1cc(C#N)ccc1NC(=O)[C@@H]1N[C@@H](CC(C)(C)C)[C@@]2(C(=O)Nc3cc(Cl)ccc32)[C@H]1c1cccc(Cl)c1 (racemic) [Example 66, rac-(2′S,3′R,4′R,5′R)-6-chloro-4′-(3-chloro-phenyl)-2′-(2,2-dimethyl-propyl)-2-oxo-1,2-dihydro-spiro[indole-3,3′-pyrrolidine]-5′-carboxylic acid (4-cyano-2-methoxy-phenyl)-amide]
0.013 µM	CC(C)(C)C[C@@H]1N[C@@H](C(=O)Nc2ccc(S(C)(=O)=O)cc2)[C@H](c2cccc(Cl)c2F)[C@]12C(=O)Nc1cc(Cl)ccc12 (racemic) [Example 10, rac-(2′S,3′R,4′S,5′R)-6-chloro-4′-(3-chloro-2-fluoro-phenyl)-2′-(2,2-dimethyl-propyl)-2-oxo-1,2-dihydro-spiro[indole-3,3′-pyrrolidine]-5′-carboxylic acid (4-methanesulfonyl-phenyl)-amide]
0.005 µM	COc1cc(CC(=O)O)ccc1NC(=O)[C@@H]1N[C@@H](CC(C)(C)C)[C@@]2(C(=O)Nc3cc(Cl)ccc32)[C@H]1c1cccc(Cl)c1F [Example 160, chiral (4-{[(2′S,3′R,4′S,5′R)-6-chloro-4′-(3-chloro-2-fluoro-phenyl)-2′-(2,2-dimethyl-propyl)-2-oxo-1,2-dihydro-spiro[indole-3,3′-pyrrolidine]-5′-carbonyl]-amino}-3-methoxy-phenyl)-acetic acid]
0.006 µM	COc1cc(OCCCS(C)(=O)=O)ccc1NC(=O)[C@@H]1N[C@@H](CC(C)(C)C)[C@@]2(C(=O)Nc3cc(Cl)ccc32)[C@H]1c1cccc(Cl)c1F [Example 181, chiral (2′S,3′R,4′S,5′R)-6-chloro-4′-(3-chloro-2-fluoro-phenyl)-2′-(2,2-dimethyl-propyl)-2-oxo-1,2-dihydro-spiro[indole-3,3′-pyrrolidine]-5′-carboxylic acid [4-(3-methanesulfonyl-propoxy)-2-methoxy-phenyl]-amide]
> 10 µM	CC(C)(C)C[C@@H]1N[C@@H](C(=O)Nc2ccc(S(C)(=O)=O)cc2F)[C@H](c2cccc(Cl)c2F)[C@]12C(=O)Nc1cc(Cl)ccc12 (racemic) [Example 37, rac-(2′S,3′R,4′S,5′R)-6-chloro-4′-(3-chloro-2-fluoro-phenyl)-2′-(2,2-dimethyl-propyl)-2-oxo-1,2-dihydro-spiro[indole-3,3′-pyrrolidine]-5′-carboxylic acid (2-fluoro-4-methanesulfonyl-phenyl)-amide]
0.016 µM	COC(=O)c1ccc(NC(=O)[C@@H]2N[C@@H](CC(C)(C)C)[C@@]3(C(=O)Nc4cc(Cl)ccc43)[C@H]2c2cccc(Cl)c2F)cc1 (racemic) [Example 5, rac-4-{[(2′S,3′R,4′S,5′R)-6-chloro-4′-(3-chloro-2-fluoro-phenyl)-2′-(2,2-dimethyl-propyl)-2-oxo-1,2-dihydro-spiro[indole-3,3′-pyrrolidine]-5′-carbonyl]-amino}-benzoic acid methyl ester]
0.017 µM	COC(=O)c1ccc(NC(=O)[C@@H]2N[C@@H](CC(C)(C)C)[C@@]3(C(=O)Nc4cc(Cl)ccc43)[C@H]2c2cccc(Cl)c2)c(OC)c1 (racemic) [Example 107, rac-4-{[(2′S,3′R,4′R,5′R)-6-chloro-4′-(3-chloro-phenyl)-2′-(2,2-dimethyl-propyl)-2-oxo-1,2-dihydro-spiro[indole-3,3′-pyrrolidine]-5′-carbonyl]-amino}-3-methoxy-benzoic acid methyl ester]
0.007 µM	COc1cc(C(N)=O)ccc1NC(=O)[C@@H]1N[C@@H](CC(C)(C)C)[C@@]2(C(=O)Nc3cc(Cl)ccc32)[C@H]1c1cccc(Br)c1F (racemic) [Example 117, rac-(2′S,3′R,4′S,5′R)-4′-(3-bromo-2-fluoro-phenyl)-6-chloro-2′-(2,2-dimethyl-propyl)-2-oxo-1,2-dihydro-spiro[indole-3,3′-pyrrolidine]-5′-carboxylic acid (4-carbamoyl-2-methoxy-phenyl)-amide]
0.005 µM	COc1cc(C(N)=O)ccc1NC(=O)[C@@H]1N[C@@H](CC(C)(C)C)[C@@]2(C(=O)Nc3cc(Cl)ccc32)[C@H]1c1cccc(Cl)c1F [Example 60, chiral (2′S,3′R,4′S,5′R)-6-chloro-4′-(3-chloro-2-fluoro-phenyl)-2′-(2,2-dimethyl-propyl)-2-oxo-1,2-dihydro-spiro[indole-3,3′-pyrrolidine]-5′-carboxylic acid (4-carbamoyl-2-methoxy-phenyl)-amide]
0.013 µM	CC(C)(C)C[C@@H]1N[C@@H](C(=O)Nc2cccc(C(N)=O)c2)[C@H](c2cccc(Cl)c2F)[C@]12C(=O)Nc1cc(Cl)ccc12 (racemic) [Example 33, rac-(2′S,3′R,4′S,5′R)-6-chloro-4′-(3-chloro-2-fluoro-phenyl)-2′-(2,2-dimethyl-propyl)-2-oxo-1,2-dihydro-spiro[indole-3,3′-pyrrolidine]-5′-carboxylic acid (3-carbamoyl-phenyl)-amide]
0.006 µM	CC(=O)c1ccc(NC(=O)[C@@H]2N[C@@H](CC(C)(C)C)[C@@]3(C(=O)Nc4cc(Cl)ccc43)[C@H]2c2cccc(Cl)c2F)cc1 [Example 12, chiral (2′S,3′R,4′S,5′R)-6-chloro-4′-(3-chloro-2-fluoro-phenyl)-2′-(2,2-dimethyl-propyl)-2-oxo-1,2-dihydro-spiro[indole-3,3′-pyrrolidine]-5′-carboxylic acid (4-acetyl-phenyl)-amide]
0.01 µM	CNc1cc(C(=O)O)ccc1NC(=O)[C@@H]1N[C@@H](CC(C)(C)C)[C@@]2(C(=O)Nc3cc(Cl)ccc32)[C@H]1c1cccc(Cl)c1F (racemic) [Example 167, rac-4-{[(2′S,3′R,4′S,5′R)-6-chloro-4′-(3-chloro-2-fluoro-phenyl)-2′-(2,2-dimethyl-propyl)-2-oxo-1,2-dihydro-spiro[indole-3,3′-pyrrolidine]-5′-carbonyl]-amino}-3-methylamino-benzoic acid]
0.011 µM	COc1cc(C(N)=O)ccc1NC(=O)[C@@H]1N[C@@H](CC(C)(C)C)[C@@]2(C(=O)Nc3cc(Cl)cc(F)c32)[C@H]1c1cccc(Cl)c1F (racemic) [Example 76, rac-(2′S,3′R,4′S,5′R)-6-chloro-4′-(3-chloro-2-fluoro-phenyl)-2′-(2,2-dimethyl-propyl)-4-fluoro-2-oxo-1,2-dihydro-spiro[indole-3,3′-pyrrolidine]-5′-carboxylic acid (4-carbamoyl-2-methoxy-phenyl)-amide]
0.014 µM	CC(C)(C)C[C@@H]1N[C@@H](C(=O)Nc2ccn(CCO)c(=O)c2)[C@H](c2cccc(Cl)c2F)[C@]12C(=O)Nc1cc(Cl)ccc12 (racemic) [Example 30]

SMILES	IC50
CCCCOc1cc(C(=O)OC)ccc1NC(=O)[C@@H]1N[C@@H](CC(C)(C)C)[C@@]2(C(=O)Nc3cc(Cl)ccc32)[C@H]1c1cccc(Cl)c1F (racemic) [Example 150, rac-3-butoxy-4-{[(2′S,3′R,4′S,5′R)-6-chloro-4′-(3-chloro-2-fluoro-phenyl)-2′-(2,2-dimethyl-propyl)-2-oxo-1,2-dihydro-spiro[indole-3,3′-pyrrolidine]-5′-carbonyl]-amino}-benzoic acid methyl ester]	0.015 µM

Reference: patent US8088815B2, “Spiroindolinone pyrrolidines” (Hoffman-La Roche Inc., priority 2009, dated 2012)
